# Reference: US20250353891A1 (MEDIMMUNE LIMITED, priority 2022, published 2025)
# Starred links: 1 amine or outer side, 2 acyl side, 3 side chain; linkers in the order of their positions; H or OH if unused. Non-standard residues stand in square brackets, D forms with d. Residues, ends and D or L forms follow the SMILES beside them. Groups on a side chain read outwards from the residue. *: point of attachment. C20 diacid = O=C(O)CCCCCCCCCCCCCCCCCCC(=O)*; C18 diacid = O=C(O)CCCCCCCCCCCCCCCCC(=O)*; γGlu = O=C(O)[C@H](CCC(=O)[*:2])N[*:1]; αMeF = C[C@](N)(Cc1ccccc1)C(=O)O; PEG2 = NCCOCCOCCC(=O)O; AEEA = NCCOCCOCC(=O)O; Aib = CC(C)(N)C(=O)O
# Assays:
# [1] = target: human GLP-1 receptor (hGLP-1R) (Homo sapiens, UniProt P43220); test: cAMP production (HTRF) in CHO cells expressing hGLP-1R; assay type: cell-based; set-up: expressed in transfected cells; settings: for EC50: Table 7, peptides modified at position 20, cAMP in CHO hGLP-1R cells, geometric mean, read-out: hGLP-1R EC50; for % Relative Potency Ratio: Table 7, % GLP-1R activity relative to GLP-1 / % GlucR activity relative to glucagon
# Chain of human GLP-1 receptor (hGLP-1R) (P43220 24-463): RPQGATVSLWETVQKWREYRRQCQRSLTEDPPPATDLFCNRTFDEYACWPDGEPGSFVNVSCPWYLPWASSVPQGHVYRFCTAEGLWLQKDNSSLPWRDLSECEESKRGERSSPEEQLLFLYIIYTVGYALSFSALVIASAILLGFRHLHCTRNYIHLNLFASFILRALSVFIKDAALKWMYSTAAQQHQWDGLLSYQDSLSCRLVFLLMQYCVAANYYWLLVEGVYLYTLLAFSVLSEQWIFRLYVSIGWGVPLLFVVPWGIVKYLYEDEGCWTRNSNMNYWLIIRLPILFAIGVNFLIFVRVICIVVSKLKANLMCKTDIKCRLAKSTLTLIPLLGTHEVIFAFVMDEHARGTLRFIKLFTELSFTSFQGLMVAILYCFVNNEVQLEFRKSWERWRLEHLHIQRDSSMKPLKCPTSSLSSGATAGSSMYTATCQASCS
# How it was run: (§1)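 Potency values represent EC50 from 4-parameter logistic curves of HTRF % Delta F signal. Receptor-expressing CHO cells (hGCGR 2×10^5 cells/mL, hGLP-1R 1×10^5 cells/mL) were exposed for 30 min at room temperature before two-step cAMP detection.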
# [2] = target: human glucagon receptor (hGCGR) (Homo sapiens, UniProt P47871); test: cAMP production (HTRF) in CHO cells expressing hGCGR; assay type: cell-based; set-up: expressed in transfected cells; settings: Table 7, peptides modified at position 20; cAMP in CHO hGCGR cells; geometric mean; read-out: hGluc-R EC50
# Chain of human glucagon receptor (hGCGR) (P47871 26-477): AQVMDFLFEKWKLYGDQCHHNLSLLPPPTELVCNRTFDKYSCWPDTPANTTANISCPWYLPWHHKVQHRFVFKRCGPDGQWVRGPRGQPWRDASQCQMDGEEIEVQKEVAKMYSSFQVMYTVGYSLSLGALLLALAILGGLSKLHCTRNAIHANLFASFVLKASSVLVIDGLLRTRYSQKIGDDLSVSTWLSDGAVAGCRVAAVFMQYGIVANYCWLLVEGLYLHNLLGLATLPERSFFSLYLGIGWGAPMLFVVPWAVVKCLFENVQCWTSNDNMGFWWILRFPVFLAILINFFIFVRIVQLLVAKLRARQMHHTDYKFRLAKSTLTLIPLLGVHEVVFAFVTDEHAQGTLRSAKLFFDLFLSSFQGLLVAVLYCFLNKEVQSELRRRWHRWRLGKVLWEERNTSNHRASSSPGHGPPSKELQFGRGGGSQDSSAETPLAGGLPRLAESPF
# How it was run: as §1
SMILES,EC50 [1],% Relative Potency Ratio [1],EC50 [2]
CC[C@H](C)[C@H](NC(=O)C(C)(C)NC(=O)[C@H](CCC(N)=O)NC(=O)[C@@H](NC(=O)[C@](C)(Cc1ccccc1)NC(=O)[C@H](CC(=O)O)NC(=O)[C@H](CCCCNC(=O)COCCOCCNC(=O)COCCOCCNC(=O)CC[C@H](NC(=O)CCCCCCCCCCCCCCCCC(=O)O)C(=O)O)NC(=O)[C@H](C)NC(=O)[C@H](C)NC(=O)[C@H](CCC(N)=O)NC(=O)[C@H](CO)NC(=O)[C@H](CC(=O)O)NC(=O)[C@H](CC(C)C)NC(=O)[C@](C)(Cc1ccccc1)NC(=O)[C@H](CCCCN)NC(=O)[C@H](CO)NC(=O)[C@@H](NC(=O)[C@H](CC(=O)O)NC(=O)[C@H](CO)NC(=O)[C@@H](NC(=O)[C@](C)(Cc1ccccc1)NC(=O)[C@H](CO)NC(=O)CNC(=O)[C@H](Cc1c[nH]cn1)NC(=O)C(C)(C)NC(=O)[C@@H](N)Cc1c[nH]cn1)[C@@H](C)O)C(C)C)C(C)C)C(=O)N[C@@H](C)C(=O)N[C@@H](CC(N)=O)C(=O)N[C@H](C(N)=O)[C@@H](C)O [Peptide 255] (H-H[Aib]HGS[αMeF]TSDVSK[αMeF]LDSQAAK([AEEA-AEEA-γGlu-C18 diacid])D[αMeF]VQ[Aib]IANT-NH2; N-terminus assumed),0.148 nM,2.0,0.146 nM
CC[C@H](C)[C@H](NC(=O)C(C)(C)NC(=O)[C@H](CCC(N)=O)NC(=O)[C@@H](NC(=O)[C@](C)(Cc1ccccc1)NC(=O)[C@H](CC(=O)O)NC(=O)[C@H](CCCCNC(=O)COCCOCCNC(=O)COCCOCCNC(=O)CC[C@H](NC(=O)CC[C@H](NC(=O)CCCCCCCCCCCCCCCCCCC(=O)O)C(=O)O)C(=O)O)NC(=O)[C@H](C)NC(=O)[C@H](C)NC(=O)[C@H](CCC(N)=O)NC(=O)[C@H](CO)NC(=O)[C@H](CC(=O)O)NC(=O)[C@H](CC(C)C)NC(=O)[C@](C)(Cc1ccccc1)NC(=O)[C@H](CCCCN)NC(=O)[C@H](CO)NC(=O)[C@@H](NC(=O)[C@H](CC(=O)O)NC(=O)[C@H](CO)NC(=O)[C@@H](NC(=O)[C@](C)(Cc1ccccc1)NC(=O)[C@H](CO)NC(=O)CNC(=O)[C@H](Cc1c[nH]cn1)NC(=O)C(C)(C)NC(=O)[C@@H](N)Cc1c[nH]cn1)[C@@H](C)O)C(C)C)C(C)C)C(=O)N[C@@H](C)C(=O)N[C@@H](CC(N)=O)C(=O)N[C@H](C(N)=O)[C@@H](C)O [Peptide 256] (H-H[Aib]HGS[αMeF]TSDVSK[αMeF]LDSQAAK([AEEA-AEEA-γGlu-γGlu-C20 diacid])D[αMeF]VQ[Aib]IANT-NH2),0.346 nM,7.5,1.31 nM
CC[C@H](C)[C@H](NC(=O)C(C)(C)NC(=O)[C@H](CCC(N)=O)NC(=O)[C@@H](NC(=O)[C@](C)(Cc1ccccc1)NC(=O)[C@H](CC(=O)O)NC(=O)[C@H](CCCCNC(=O)CCOCCOCCNC(=O)CCOCCOCCNC(=O)CC[C@H](NC(=O)CC[C@H](NC(=O)CCCCCCCCCCCCCCCCC(=O)O)C(=O)O)C(=O)O)NC(=O)[C@H](C)NC(=O)[C@H](C)NC(=O)[C@H](CCCNC(=N)N)NC(=O)[C@H](CO)NC(=O)[C@H](CC(=O)O)NC(=O)[C@H](CC(C)C)NC(=O)[C@](C)(Cc1ccccc1)NC(=O)[C@H](CCCCN)NC(=O)[C@H](CO)NC(=O)[C@@H](NC(=O)[C@H](CC(=O)O)NC(=O)[C@H](CO)NC(=O)[C@@H](NC(=O)[C@](C)(Cc1ccccc1)NC(=O)[C@H](CO)NC(=O)CNC(=O)[C@H](Cc1c[nH]cn1)NC(=O)C(C)(C)NC(=O)[C@@H](N)Cc1c[nH]cn1)[C@@H](C)O)C(C)C)C(C)C)C(=O)N[C@@H](C)C(=O)N[C@@H](CC(N)=O)C(=O)N[C@H](C(N)=O)[C@@H](C)O [Peptide 258] (H-H[Aib]HGS[αMeF]TSDVSK[αMeF]LDSRAAK([PEG2-PEG2-γGlu-γGlu-C18 diacid])D[αMeF]VQ[Aib]IANT-NH2; N-terminus assumed),0.034 nM,5.4,0.0931 nM
CC[C@H](C)[C@H](NC(=O)C(C)(C)NC(=O)[C@H](CCC(N)=O)NC(=O)[C@@H](NC(=O)[C@](C)(Cc1ccccc1)NC(=O)[C@H](CC(=O)O)NC(=O)[C@H](CCCCNC(=O)COCCOCCNC(=O)CC[C@H](NC(=O)COCCOCCNC(=O)CC[C@H](NC(=O)CCCCCCCCCCCCCCCCC(=O)O)C(=O)O)C(=O)O)NC(=O)[C@H](C)NC(=O)[C@H](C)NC(=O)[C@H](CCCNC(=N)N)NC(=O)[C@H](CO)NC(=O)[C@H](CC(=O)O)NC(=O)[C@H](CC(C)C)NC(=O)[C@](C)(Cc1ccccc1)NC(=O)[C@H](CCCCN)NC(=O)[C@H](CO)NC(=O)[C@@H](NC(=O)[C@H](CC(=O)O)NC(=O)[C@H](CO)NC(=O)[C@@H](NC(=O)[C@](C)(Cc1ccccc1)NC(=O)[C@H](CO)NC(=O)CNC(=O)[C@H](Cc1c[nH]cn1)NC(=O)C(C)(C)NC(=O)[C@@H](N)Cc1c[nH]cn1)[C@@H](C)O)C(C)C)C(C)C)C(=O)N[C@@H](C)C(=O)N[C@@H](CC(N)=O)C(=O)N[C@H](C(N)=O)[C@@H](C)O [Peptide 260] (H-H[Aib]HGS[αMeF]TSDVSK[αMeF]LDSRAAK([AEEA-γGlu-AEEA-γGlu-C18 diacid])D[αMeF]VQ[Aib]IANT-NH2),0.0331 nM,4.6,0.0769 nM

# Continued, values first:
EC50 [1],% Relative Potency Ratio [1],EC50 [2],SMILES
0.119 nM,21.7,1.31 nM,CC[C@H](C)[C@H](NC(=O)[C@H](CO)NC(=O)[C@H](CCC(=O)O)NC(=O)[C@@H](NC(=O)[C@H](Cc1ccccc1)NC(=O)[C@H](CC(=O)O)NC(=O)[C@H](CCCCNC(=O)COCCOCCNC(=O)COCCOCCNC(=O)CC[C@H](NC(=O)CCCCCCCCCCCCCCCCCCC(=O)O)C(=O)O)NC(=O)[C@H](C)NC(=O)C(C)(C)NC(=O)[C@H](CCCNC(=N)N)NC(=O)[C@H](CO)NC(=O)[C@H](CC(=O)O)NC(=O)[C@H](CC(C)C)NC(=O)[C@](C)(Cc1ccccc1)NC(=O)[C@H](CCCCN)NC(=O)[C@H](CO)NC(=O)[C@@H](NC(=O)[C@H](CC(=O)O)NC(=O)[C@H](CO)NC(=O)[C@@H](NC(=O)[C@](C)(Cc1ccccc1)NC(=O)[C@H](CO)NC(=O)CNC(=O)[C@H](Cc1c[nH]cn1)NC(=O)C(C)(C)NC(=O)[C@@H](N)Cc1c[nH]cn1)[C@@H](C)O)C(C)C)C(C)C)C(=O)N[C@@H](C)C(=O)N[C@@H](CC(N)=O)C(=O)N[C@H](C(N)=O)[C@@H](C)O [Peptide 252] (H-H[Aib]HGS[αMeF]TSDVSK[αMeF]LDSR[Aib]AK([AEEA-AEEA-γGlu-C20 diacid])DFVESIANT-NH2)
0.0755 nM,1.4,0.0531 nM,CC[C@H](C)[C@H](NC(=O)[C@H](CO)NC(=O)[C@H](CCC(=O)O)NC(=O)[C@@H](NC(=O)[C@H](Cc1ccccc1)NC(=O)[C@H](CC(=O)O)NC(=O)[C@H](CCCCNC(=O)COCCOCCNC(=O)CC[C@H](NC(=O)CCCCCCCCCCCCCCCCC(=O)O)C(=O)O)NC(=O)[C@H](C)NC(=O)C(C)(C)NC(=O)[C@H](CCCNC(=N)N)NC(=O)[C@H](CO)NC(=O)[C@H](CC(=O)O)NC(=O)[C@H](CC(C)C)NC(=O)[C@](C)(Cc1ccccc1)NC(=O)[C@H](CCCCN)NC(=O)[C@H](CO)NC(=O)[C@@H](NC(=O)[C@H](CC(=O)O)NC(=O)[C@H](CO)NC(=O)[C@@H](NC(=O)[C@](C)(Cc1ccccc1)NC(=O)[C@H](CO)NC(=O)CNC(=O)[C@H](Cc1c[nH]cn1)NC(=O)C(C)(C)NC(=O)[C@@H](N)Cc1c[nH]cn1)[C@@H](C)O)C(C)C)C(C)C)C(=O)N[C@@H](C)C(=O)N[C@@H](CC(N)=O)C(=O)N[C@H](C(N)=O)[C@@H](C)O [Peptide 253] (H-H[Aib]HGS[αMeF]TSDVSK[αMeF]LDSR[Aib]AK([AEEA-γGlu-C18 diacid])DFVESIANT-NH2)
0.102 nM,2.4,0.125 nM,CC[C@H](C)[C@H](NC(=O)[C@H](CO)NC(=O)[C@H](CCC(=O)O)NC(=O)[C@@H](NC(=O)[C@H](Cc1ccccc1)NC(=O)[C@H](CC(=O)O)NC(=O)[C@H](CCCCNC(=O)CC[C@H](NC(=O)CCCCCCCCCCCCCCCCC(=O)O)C(=O)O)NC(=O)[C@H](C)NC(=O)C(C)(C)NC(=O)[C@H](CCCNC(=N)N)NC(=O)[C@H](CO)NC(=O)[C@H](CC(=O)O)NC(=O)[C@H](CC(C)C)NC(=O)[C@](C)(Cc1ccccc1)NC(=O)[C@H](CCCCN)NC(=O)[C@H](CO)NC(=O)[C@@H](NC(=O)[C@H](CC(=O)O)NC(=O)[C@H](CO)NC(=O)[C@@H](NC(=O)[C@](C)(Cc1ccccc1)NC(=O)[C@H](CO)NC(=O)CNC(=O)[C@H](Cc1c[nH]cn1)NC(=O)C(C)(C)NC(=O)[C@@H](N)Cc1c[nH]cn1)[C@@H](C)O)C(C)C)C(C)C)C(=O)N[C@@H](C)C(=O)N[C@@H](CC(N)=O)C(=O)N[C@H](C(N)=O)[C@@H](C)O [Peptide 254] (H-H[Aib]HGS[αMeF]TSDVSK[αMeF]LDSR[Aib]AK([γGlu-C18 diacid])DFVESIANT-NH2)
0.0191 nM,3.6,0.0348 nM,CC[C@H](C)[C@H](NC(=O)C(C)(C)NC(=O)[C@H](CCC(N)=O)NC(=O)[C@@H](NC(=O)[C@](C)(Cc1ccccc1)NC(=O)[C@H](CC(=O)O)NC(=O)[C@H](CCCCNC(=O)COCCOCCNC(=O)CC[C@H](NC(=O)COCCOCCNC(=O)CCCCCCCCCCCCCCCCC(=O)O)C(=O)O)NC(=O)[C@H](C)NC(=O)[C@H](C)NC(=O)[C@H](CCCNC(=N)N)NC(=O)[C@H](CO)NC(=O)[C@H](CC(=O)O)NC(=O)[C@H](CC(C)C)NC(=O)[C@](C)(Cc1ccccc1)NC(=O)[C@H](CCCCN)NC(=O)[C@H](CO)NC(=O)[C@@H](NC(=O)[C@H](CC(=O)O)NC(=O)[C@H](CO)NC(=O)[C@@H](NC(=O)[C@](C)(Cc1ccccc1)NC(=O)[C@H](CO)NC(=O)CNC(=O)[C@H](Cc1c[nH]cn1)NC(=O)C(C)(C)NC(=O)[C@@H](N)Cc1c[nH]cn1)[C@@H](C)O)C(C)C)C(C)C)C(=O)N[C@@H](C)C(=O)N[C@@H](CC(N)=O)C(=O)N[C@H](C(N)=O)[C@@H](C)O [Peptide 259] (H-H[Aib]HGS[αMeF]TSDVSK[αMeF]LDSRAAK([AEEA-γGlu-AEEA-C18 diacid])D[αMeF]VQ[Aib]IANT-NH2)
